In patent publication US20260226493A1, “HERBICIDE RESISTANT PLANTS” (SYNGENTA CROP PROTECTION AG, priority 2023, published 2026):

Assays:
Assay in all cases: BIO3-BIO1 mutant enzyme activity in the presence of herbicide, percentage inhibition (fluorometric DAPA assay)
Format in all cases: biochemical
Conditions in all cases: read-out: percentage inhibition
[1] = molecular target: T1, Arabidopsis thaliana BIO3-BIO1 (BioDA) mutants (Arabidopsis thaliana, UniProt B0F481, Q517D)
T1 construct: with the predicted N-terminal mitochondrial transit peptide removed; 6xHis-tag (N); thrombin cleavage site (N); made in house; host or cells: E. coli BL21 (DE3) bioA
How it was run: (§1)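 Percentage inhibition compares activity at one of three herbicide concentrations against DMSO, from o-phthalaldehyde-derivatised DAPA fluorescence (ex 410, em 470 nm). Purified N-His BIO3-BIO1 variants (50 nM, E. coli-expressed) saw herbicide 10 min at 20 °C in pH 8.6 EPPS buffer, then 20 μM KAPA plus 100 μM spermidine for 75 min at 20 °C.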

[2] = molecular target: T2, Arabidopsis thaliana BIO3-BIO1 (BioDA) mutants (Arabidopsis thaliana, UniProt B0F481, P508L)
T2 construct: with the predicted N-terminal mitochondrial transit peptide removed; 6xHis-tag (N); thrombin cleavage site (N); made in house; host or cells: E. coli BL21 (DE3) bioA
How it was run: as §1

[3] = molecular target: T3, Arabidopsis thaliana BIO3-BIO1 (BioDA) mutants (Arabidopsis thaliana, UniProt B0F481, P347A)
T3 construct: with the predicted N-terminal mitochondrial transit peptide removed; 6xHis-tag (N); thrombin cleavage site (N); made in house; host or cells: E. coli BL21 (DE3) bioA
How it was run: as §1

[4] = molecular target: T4, Arabidopsis thaliana BIO3-BIO1 (BioDA) mutants (Arabidopsis thaliana, UniProt B0F481, DEL513-513)
T4 construct: with the predicted N-terminal mitochondrial transit peptide removed; 6xHis-tag (N); thrombin cleavage site (N); made in house; host or cells: E. coli BL21 (DE3) bioA
How it was run: as §1

[5] = molecular target: T5, Arabidopsis thaliana BIO3-BIO1 (BioDA) mutants (Arabidopsis thaliana, UniProt B0F481, P421E)
T5 construct: with the predicted N-terminal mitochondrial transit peptide removed; 6xHis-tag (N); thrombin cleavage site (N); made in house; host or cells: E. coli BL21 (DE3) bioA
How it was run: as §1

[6] = molecular target: T6, Arabidopsis thaliana BIO3-BIO1 (BioDA) mutants (Arabidopsis thaliana, UniProt B0F481, M419I)
T6 construct: with the predicted N-terminal mitochondrial transit peptide removed; 6xHis-tag (N); thrombin cleavage site (N); made in house; host or cells: E. coli BL21 (DE3) bioA
How it was run: as §1

[7] = molecular target: T7, Arabidopsis thaliana BIO3-BIO1 (BioDA) mutants (Arabidopsis thaliana, UniProt B0F481, Q517F)
T7 construct: with the predicted N-terminal mitochondrial transit peptide removed; 6xHis-tag (N); thrombin cleavage site (N); made in house; host or cells: E. coli BL21 (DE3) bioA
How it was run: as §1

[8] = molecular target: T8, Arabidopsis thaliana BIO3-BIO1 (BioDA) mutants (Arabidopsis thaliana, UniProt B0F481, T393V)
T8 construct: with the predicted N-terminal mitochondrial transit peptide removed; 6xHis-tag (N); thrombin cleavage site (N); made in house; host or cells: E. coli BL21 (DE3) bioA
How it was run: as §1

[9] = molecular target: T9, Arabidopsis thaliana BIO3-BIO1 (BioDA) mutants (Arabidopsis thaliana, UniProt B0F481, W392M)
T9 construct: with the predicted N-terminal mitochondrial transit peptide removed; 6xHis-tag (N); thrombin cleavage site (N); made in house; host or cells: E. coli BL21 (DE3) bioA
How it was run: as §1

[10] = molecular target: T10, Arabidopsis thaliana BIO3-BIO1 (BioDA) mutants (Arabidopsis thaliana, UniProt B0F481, R756K)
T10 construct: with the predicted N-terminal mitochondrial transit peptide removed; 6xHis-tag (N); thrombin cleavage site (N); made in house; host or cells: E. coli BL21 (DE3) bioA
How it was run: as §1

[11] = molecular target: T11, Arabidopsis thaliana BIO3-BIO1 (BioDA) mutants (Arabidopsis thaliana, UniProt B0F481, S509K)
T11 construct: with the predicted N-terminal mitochondrial transit peptide removed; 6xHis-tag (N); thrombin cleavage site (N); made in house; host or cells: E. coli BL21 (DE3) bioA
How it was run: as §1

[12] = molecular target: T12, Arabidopsis thaliana BIO3-BIO1 (BioDA) mutants (Arabidopsis thaliana, UniProt B0F481, S509E)
T12 construct: with the predicted N-terminal mitochondrial transit peptide removed; 6xHis-tag (N); thrombin cleavage site (N); made in house; host or cells: E. coli BL21 (DE3) bioA
How it was run: as §1

T2 sequence (B0F481 23-833 P508L): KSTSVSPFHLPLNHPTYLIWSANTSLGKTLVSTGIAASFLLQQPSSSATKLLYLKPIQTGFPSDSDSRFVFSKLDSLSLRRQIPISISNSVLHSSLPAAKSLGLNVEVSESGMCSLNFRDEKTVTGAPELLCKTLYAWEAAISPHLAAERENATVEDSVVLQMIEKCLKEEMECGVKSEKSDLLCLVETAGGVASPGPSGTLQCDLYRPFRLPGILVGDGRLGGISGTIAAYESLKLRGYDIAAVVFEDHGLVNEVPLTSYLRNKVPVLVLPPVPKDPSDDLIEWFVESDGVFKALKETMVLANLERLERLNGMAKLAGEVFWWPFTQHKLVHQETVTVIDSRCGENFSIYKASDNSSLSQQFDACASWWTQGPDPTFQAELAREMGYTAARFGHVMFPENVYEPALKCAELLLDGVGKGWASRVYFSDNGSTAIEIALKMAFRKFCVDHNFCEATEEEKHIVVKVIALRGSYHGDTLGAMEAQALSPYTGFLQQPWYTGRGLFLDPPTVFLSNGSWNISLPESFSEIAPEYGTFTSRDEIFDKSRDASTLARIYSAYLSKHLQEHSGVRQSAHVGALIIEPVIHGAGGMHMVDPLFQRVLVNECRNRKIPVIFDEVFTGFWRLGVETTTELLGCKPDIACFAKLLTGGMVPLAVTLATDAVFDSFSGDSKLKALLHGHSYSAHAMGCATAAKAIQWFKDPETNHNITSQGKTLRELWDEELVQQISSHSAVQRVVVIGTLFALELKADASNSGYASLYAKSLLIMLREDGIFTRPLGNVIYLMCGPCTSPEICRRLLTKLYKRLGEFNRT
T1 sequence (B0F481 23-833 Q517D): as the sequence (B0F481 23-833 P508L) above, with L486P, Q495D counted along it
T11 sequence (B0F481 23-833 S509K): as the sequence (B0F481 23-833 P508L) above, with L486P, S487K counted along it
T8 sequence (B0F481 23-833 T393V): as the sequence (B0F481 23-833 P508L) above, with T371V, L486P counted along it
T10 sequence (B0F481 23-833 R756K): as the sequence (B0F481 23-833 P508L) above, with L486P, R734K counted along it
T9 sequence (B0F481 23-833 W392M): as the sequence (B0F481 23-833 P508L) above, with W370M, L486P counted along it
T6 sequence (B0F481 23-833 M419I): as the sequence (B0F481 23-833 P508L) above, with M397I, L486P counted along it
T12 sequence (B0F481 23-833 S509E): as the sequence (B0F481 23-833 P508L) above, with L486P, S487E counted along it
T4 sequence (B0F481 other isoform, or with tags, fused parts or gaps DEL513-513): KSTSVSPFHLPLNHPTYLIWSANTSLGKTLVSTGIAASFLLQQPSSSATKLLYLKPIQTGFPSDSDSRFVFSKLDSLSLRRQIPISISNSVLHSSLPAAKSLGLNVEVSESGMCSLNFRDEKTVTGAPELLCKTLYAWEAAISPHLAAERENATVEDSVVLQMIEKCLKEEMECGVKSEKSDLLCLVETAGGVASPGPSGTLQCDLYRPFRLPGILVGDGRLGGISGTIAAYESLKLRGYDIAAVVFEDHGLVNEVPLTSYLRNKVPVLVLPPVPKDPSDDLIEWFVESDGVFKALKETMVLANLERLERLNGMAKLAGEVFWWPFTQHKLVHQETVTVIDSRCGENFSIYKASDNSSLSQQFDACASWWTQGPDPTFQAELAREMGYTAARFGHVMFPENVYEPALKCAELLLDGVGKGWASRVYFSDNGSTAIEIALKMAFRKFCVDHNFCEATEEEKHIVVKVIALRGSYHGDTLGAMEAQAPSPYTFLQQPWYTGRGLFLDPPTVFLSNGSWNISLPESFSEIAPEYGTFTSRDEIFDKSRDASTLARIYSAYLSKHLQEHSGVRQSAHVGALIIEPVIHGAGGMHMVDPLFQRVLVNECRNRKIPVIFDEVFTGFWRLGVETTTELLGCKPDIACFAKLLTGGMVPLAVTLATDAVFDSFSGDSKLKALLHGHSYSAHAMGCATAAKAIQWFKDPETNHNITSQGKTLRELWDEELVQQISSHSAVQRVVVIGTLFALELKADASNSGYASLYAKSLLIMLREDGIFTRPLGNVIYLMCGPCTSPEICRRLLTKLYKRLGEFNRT
T5 sequence (B0F481 23-833 P421E): as the sequence (B0F481 23-833 P508L) above, with P399E, L486P counted along it
T3 sequence (B0F481 23-833 P347A): as the sequence (B0F481 23-833 P508L) above, with P325A, L486P counted along it
T7 sequence (B0F481 23-833 Q517F): as the sequence (B0F481 23-833 P508L) above, with L486P, Q495F counted along it

Structure (SMILES)	inhibition at 0.2 µM [7] [%]	inhibition at 1 µM [7] [%]	inhibition at 5 µM [7] [%]	inhibition at 0.2 µM [8] [%]	inhibition at 1 µM [8] [%]	inhibition at 5 µM [8] [%]	inhibition at 0.2 µM [9] [%]	inhibition at 1 µM [9] [%]	inhibition at 5 µM [9] [%]	inhibition at 0.2 µM [1] [%]	inhibition at 1 µM [1] [%]	inhibition at 5 µM [1] [%]	inhibition at 1 µM [2] [%]	inhibition at 1 µM [3] [%]	inhibition at 1 µM [10] [%]	inhibition at 1 µM [11] [%]	inhibition at 1 µM [4] [%]	inhibition at 1 µM [12] [%]	inhibition at 1 µM [5] [%]	inhibition at 1 µM [6] [%]	other results
CCn1c(Cn2ccc(C(F)(F)F)n2)cc(=O)c(C(=O)O)c1-c1ccc(Cl)c(Cl)c1 [Compound L, 2-(3,4-dichlorophenyl)-1-ethyl-4-oxo-6-[[3-(trifluoromethyl)pyrazol-1-yl]methyl]pyridine-3-carboxylic acid]	–	–	–	–	–	–	–	–	–	–	–	–	–	–	–	–	–	–	–	–	inhibition at 0.01 µM [1]: 0%; inhibition at 0.075 µM [1]: 0%; inhibition at 0.5 µM [1]: 0%; inhibition at 0.01 µM [2]: 16%; inhibition at 0.075 µM [2]: 48%; inhibition at 0.5 µM [2]: 80%; inhibition at 0.01 µM [3]: 8%; inhibition at 0.075 µM [3]: 23%; inhibition at 0.5 µM [3]: 47%; inhibition at 0.01 µM [4]: 31%; inhibition at 0.075 µM [4]: 30%; inhibition at 0.5 µM [4]: 54%; inhibition at 0.01 µM [5]: 0%; inhibition at 0.075 µM [5]: 0%; inhibition at 0.5 µM [5]: 41%; inhibition at 0.01 µM [6]: 6%; inhibition at 0.075 µM [6]: 1%; inhibition at 0.5 µM [6]: 30%
CCn1c(C)c(-c2ccc(F)cc2F)c(=O)c(C(=O)O)c1-c1ccc(Cl)c(Cl)c1 [Compound C, 2-(3,4-dichlorophenyl)-5-(2,4-difluorophenyl)-1-ethyl-6-methyl-4-oxo-pyridine-3-carboxylic acid]	29	55	85	3	31	70	10	30	56	0	0	0	80	27	42	88	90	87	31	7	inhibition at 0.2 µM [2]: 37%; inhibition at 5 µM [2]: 92%; inhibition at 0.2 µM [3]: 3%; inhibition at 5 µM [3]: 51%; inhibition at 0.2 µM [10]: 6%; inhibition at 5 µM [10]: 80%; inhibition at 0.2 µM [11]: 54%; inhibition at 5 µM [11]: 95%; inhibition at 0.2 µM [4]: 69%; inhibition at 5 µM [4]: 98%; inhibition at 0.2 µM [12]: 57%; inhibition at 5 µM [12]: 97%; inhibition at 0.2 µM [5]: 37%; inhibition at 5 µM [5]: 0%; inhibition at 0.2 µM [6]: 1%; inhibition at 5 µM [6]: 53%
CCn1c(-c2ccc(Cl)c(Cl)c2)c(C(=O)O)c(=O)c2cc(F)ccc21 [Compound M, 2-(3,4-dichlorophenyl)-1-ethyl-6-fluoro-4-oxo-quinoline-3-carboxylic acid]	0	29	70	0	19	46	0	0	22	6	2	0	55	26	36	77	83	73	47	21	inhibition at 0.2 µM [2]: 18%; inhibition at 5 µM [2]: 82%; inhibition at 0.2 µM [3]: 8%; inhibition at 5 µM [3]: 52%; inhibition at 0.2 µM [10]: 10%; inhibition at 5 µM [10]: 71%; inhibition at 0.2 µM [11]: 41%; inhibition at 5 µM [11]: 90%; inhibition at 0.2 µM [4]: 60%; inhibition at 5 µM [4]: 95%; inhibition at 0.2 µM [12]: 40%; inhibition at 5 µM [12]: 93%; inhibition at 0.2 µM [5]: 0%; inhibition at 5 µM [5]: 62%; inhibition at 0.2 µM [6]: 2%; inhibition at 5 µM [6]: 20%
CCOC(=O)c1nn(-c2ccc3c(c2)OC(F)(F)C(F)(F)O3)c2cccc(C(C)=O)c2c1=O [Compound A, ethyl 5-acetyl-4-oxo-1-(2,2,3,3-tetrafluoro-1,4-benzodioxin-6-yl)cinnoline-3-carboxylate]	–	20	–	–	10	–	–	14	–	–	22	–	34	20	33	0	29	6	0	7	–
